Where two headings read alike, the source gives them in different places. Non-standard residues stand in square brackets, D forms with d. Residues, ends and D or L forms follow the SMILES beside them. ξ: configuration not given here. dNMe2Nal = CN[C@H](Cc1ccc2ccccc2c1)C(=O)O; 2Nal = N[C@@H](Cc1ccc2ccccc2c1)C(=O)O; d2Nal = N[C@H](Cc1ccc2ccccc2c1)C(=O)O; ξ2Nal = NC(Cc1ccc2ccccc2c1)C(=O)O; NMeF = CN[C@@H](Cc1ccccc1)C(=O)O; Tic = O=C(O)[C@@H]1Cc2ccccc2CN1; Inp = O=C(O)C1CCNCC1; ξK = NCCCCC(N)C(=O)O; Ahx = NCCCCCC(=O)O; Ava = NCCCCC(=O)O; GABA = NCCCC(=O)O
Experiments:
growth hormone secretion = assay: GHRP induced growth hormone secretion, intravenous administration (Rat IV); format: in vivo; conditions: serum GH 10 min after injection; for RAT IV ED50: iv injection
Experimental: Immature weanling female Sprague Dawley rats were purchased from Charles River Labs (Portage, […].) and group housed with water and food available ad libitum. When the rats were 24-30 days old (weighing 50-90 g) they were anesthetized with pentobarbitone (4 mg in 0.5 ml, approximately 60 mg/kg) given by intraperitoneal injection. The rats were then placed briefly on a heated pad, to distend their tail veins, and given an intravenous tail vein injection of the peptides 20 minutes after receiving the anesthetic. The intravenous injection was of 0.1 ml using a 1 ml syringe. The injections contained graded doses of peptides or the vehicle (vehicle for all peptides given intravenously was a buffer of 20 mM sodium acetate, 45 g/l mannitol, pH 5.0). Ten minutes after the intravenous injection blood was taken by cardiac puncture, using a 3 ml syringe, and the rats were then sacrificed.
The blood was then clotted on ice, centrifuged, serum decanted and frozen for subsequent analysis using the rat GH ELISA described elsewhere in the application. For the rat GH ELISA the serum was diluted 1:50 or 1:250, depending on the expected serum GH concentrations achieved, and assayed in duplicate.

rat pituitary cells = rat pituitary cells (Rattus norvegicus, UniProt O08725)
rat pituitary cells, sequence (O08725 whole entry, the tested form may be a part): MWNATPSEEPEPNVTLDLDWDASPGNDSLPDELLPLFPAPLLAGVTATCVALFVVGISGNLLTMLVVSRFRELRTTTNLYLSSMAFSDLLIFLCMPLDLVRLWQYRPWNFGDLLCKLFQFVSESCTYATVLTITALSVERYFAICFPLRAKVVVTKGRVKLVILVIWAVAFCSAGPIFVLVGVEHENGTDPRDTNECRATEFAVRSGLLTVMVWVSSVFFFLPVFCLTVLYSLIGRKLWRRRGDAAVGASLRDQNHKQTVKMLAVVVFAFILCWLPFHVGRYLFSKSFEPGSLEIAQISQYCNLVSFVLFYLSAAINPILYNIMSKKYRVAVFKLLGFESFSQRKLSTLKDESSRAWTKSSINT
Experimental: Pituitaries from ten rats were removed, the posterior pituitary discarded and the anterior pituitary placed in Hanks' Balanced Salt Solution (HBSS: without calcium chloride, w/o magnesium chloride, w/o magnesium sulfate; Gibco) containing 20 mM HEPES (Gibco) and 100 U/ml penicillin streptomycin (PS: JRH Biosciences). Under sterile conditions, pituitaries were rinsed twice then minced into small fragments with a razor blade. […] After the incubation, fragments were triturated to yield small clumps and single cells. The cells were centrifuged 1000× g for 5 min, resuspended, counted and plated at a final cell concentration of 100,000 cells/ml. Incubation media was DME low glucose media w/NaHCO3 (Gibco) containing 20 mM hepes, 100 U/ml PS and 10% FBS (Hyclone A-111-L). Cells were plated at 0.5 ml per well in 48 well plates (Falcon) and incubated at 37° C. in 5% C02 for three days. For challenges to determine release of other pituitary hormones cells were plated at 200,000 cells per ml with 2 ml per well of a Swell plate (Corning). Challenge: A (inip)bbFK-NH2 stock (or other GHRP) concentration of 1 mM was made in DMSO and diluted with warmed media approximately 30 min prior to use. The highest concentration of DMSO in media was 0.1%. Stock solutions (1 mM) of rat GHRH, somatostatin (Sigma) and GHRP antagonist HwkWfK were made fresh in media and diluted appropriately. The media used in all challenges and washing steps was DME low glucose with 20 mM Hepes, 100 U/ml PS, 10% FBS. Media was warmed to 37° C. and gassed by placing it into the incubator prior to challenge. On day three, the media was discarded and fresh media (approximately 1 ml) added for the first of three washes. After the last wash, the plate was placed back in the incubator for a 15 min pre-incubation. Then cells were washed 2× (with warmed and gassed media) and fresh 0.5 ml media were added for the second 15 min. pre-incubation. After the second pre-incubation cells were washed 2× as above and 0.5 ml of control and test solutions were added for a final 15 min incubation. After this incubation, the media were removed for subsequent GH ELISA. GH ELISA: A two-site ELISA was used to determine rat GH concentration in the media. […] After blocking and washing, standard (rat GH reference preparation: Parlow) and challenge media is diluted 1:20 prior to GH assay were added for a 1 hr room temperature incubation. STATISTICS: The mean for each group was determined and analyzed by one-way analysis of variance with a post-hoc Student-Newman-Keuls. Significance is defined as P<0.05. The EC50 was calculated using a 4-parameter curve-fit program (Kaleidagraph). Three to four independent EC50s were used to derive the mean and SEM. RIA of pituitary hormones: LH, FSH, TSH, and Prolactin were determined with commercially available kits from Amersham, and ACTH levels were determined by a RIA kit from ICN. CALCIUM FLUX EXPERIMENT: Pituitary cells were plated on fibronectin (Collaborative Research) coated two-chambered slide wells (Nunc). After four days in monolayer culture cells were rinsed three times with HBSS (Gibco) in 1% BSA and 15 mM HEPES and then incubated for 30 min at 37° C. with 5 μM Indo-1 AM (Molecular Probes, Eugene) in HBSS also containing 1% pluronic F127 (Molecular Probes). The cells were rinsed once and fresh media added for RT incubation. […] C^++ flux was imaged with a Meridian ACAS 570 using stage scanning at 21 second intervals.

[1] = read-out: PIT Cell EC50, Table III, formula IV compounds, GH release, 15 min incubation
[2] = read-out: PIT Cell EC50, Table IV, formula III compounds, GH release, 15 min incubation
[3] = read-out: “Pit” Cell EC50, Table II, prior art compounds, GH release, 15 min incubation

SMILES	RAT IV ED50 (growth hormone secretion; Table III) [µg]	EC50 (rat pituitary cells; [1]) [nM]	also measured
CN(C)C(=O)C(Cc1ccccc1)NC(=O)[C@@H](Cc1ccc2ccccc2c1)NC(=O)[C@@H](Cc1ccc2ccccc2c1)NC(=O)C1CCNCC1 (single isomer, unassigned) [(inip) b b F dam]	10		
NCCCNC(=O)[C@H](Cc1ccc2ccccc2c1)NC(=O)[C@@H](Cc1ccc2ccccc2c1)NC(=O)[C@@H](Cc1ccc2ccccc2c1)NC(=O)CCCN [(Ab) b b B ram, (4-Aminobutanoyl)-DβNal-DβNal-βNal-[N-(3-aminopropyl)] Amide]	10	2.4	
NCCCCC(NC(=O)[C@H](Cc1ccccc1)NC(=O)[C@@H](Cc1ccc2ccccc2c1)NC(=O)C(Cc1ccc2ccccc2c1)NC(=O)CCCN)C(N)=O (stereo partly drawn) [(Ab) b b F K amide, (4-aminobutanoyl)-DβNal-DβNal-Phe-Lys-amide] (H-[GABA][ξ2Nal][d2Nal]F[ξK]-NH2)	1	0.4	
NCCCC(=O)N[C@H](Cc1ccc2ccccc2c1)C(=O)N[C@H](Cc1ccc2ccccc2c1)C(=O)N[C@@H](Cc1ccccc1)C(N)=O [(Ab) b b F amide] (H-[GABA][d2Nal][d2Nal]F-NH2)			EC50 (rat pituitary cells; [2]): 3.1 nM; RAT IV ED50 (growth hormone secretion; Table IV): 10 µg
CN(C(=O)CCCN)[C@H](Cc1ccc2ccccc2c1)C(=O)N[C@H](Cc1ccc2ccccc2c1)C(=O)N[C@@H](Cc1ccccc1)C(=O)N[C@@H](CCCCN)C(N)=O [(Ab) nmb b F K amide] (H-[GABA][dNMe2Nal][d2Nal]FK-NH2)	1	0.5	
CN(C(=O)CCCN)[C@H](Cc1ccc2ccccc2c1)C(=O)N[C@H](Cc1ccc2ccccc2c1)C(=O)N[C@@H](Cc1ccccc1)C(N)=O [(Ab) nmb b F amide] (H-[GABA][dNMe2Nal][d2Nal]F-NH2)			EC50 (rat pituitary cells; [2]): 0.2 nM; RAT IV ED50 (growth hormone secretion; Table IV): 20 µg
C[C@H](NC(=O)[C@@H](Cc1ccc2ccccc2c1)NC(=O)CCCCN)C(=O)N[C@@H](Cc1c[nH]c2ccccc12)C(=O)N[C@H](Cc1ccccc1)C(=O)N[C@@H](CCCCN)C(N)=O [(Ava) b A W f K amide, reference compound] (H-[Ava][d2Nal]AW[dF]K-NH2)			EC50 (rat pituitary cells; [3]): 0.2 nM; Rat IV ED50 (growth hormone secretion; Table II, iv tail vein injection, anesthetized weanling female rats): 1.5 µg
NCCCCC(=O)N[C@H](Cc1ccc2ccccc2c1)C(=O)N[C@H](Cc1ccc2ccccc2c1)C(=O)N[C@@H](Cc1ccc2ccccc2c1)C(=O)N[C@@H](CCCCN)C(N)=O [(Ava) b b B K amide] (H-[Ava][d2Nal][d2Nal][2Nal]K-NH2)	50	0.7	
NCCCCC(=O)N[C@H](Cc1ccc2ccccc2c1)C(=O)N[C@H](Cc1ccc2ccccc2c1)C(=O)N[C@@H](Cc1ccccc1)C(=O)NCC(N)=O [(Ava) b b F G amide] (H-[Ava][d2Nal][d2Nal]FG-NH2)	50	7.2	
NCCCCC(=O)N[C@H](Cc1ccc2ccccc2c1)C(=O)N[C@H](Cc1ccc2ccccc2c1)C(=O)N[C@@H](Cc1ccccc1)C(=O)N[C@@H](CCCCN)C(=O)N[C@@H](Cc1ccc(O)cc1)C(N)=O [(Ava) b b F K Y amide] (H-[Ava][d2Nal][d2Nal]FKY-NH2)	20	13.6	
NCCCCC(=O)N[C@H](Cc1ccc2ccccc2c1)C(=O)N[C@H](Cc1ccc2ccccc2c1)C(=O)N[C@@H](Cc1ccccc1)C(=O)N[C@@H](CCCCN)C(N)=O [(Ava) b b F K amide] (H-[Ava][d2Nal][d2Nal]FK-NH2)	2.6	2.8	
NCCCCC(=O)N[C@H](Cc1ccc2ccccc2c1)C(=O)N[C@H](Cc1ccc2ccccc2c1)C(=O)N[C@@H](Cc1ccccc1)C(=O)N[C@@H](CC(N)=O)C(N)=O [(Ava) b b F N amide] (H-[Ava][d2Nal][d2Nal]FN-NH2)	200	7.7	
NCCCCC(=O)N[C@H](Cc1ccc2ccccc2c1)C(=O)N[C@H](Cc1ccc2ccccc2c1)C(=O)N[C@@H](Cc1ccccc1)C(=O)N1CCC[C@H]1C(N)=O [(Ava) b b F P amide] (H-[Ava][d2Nal][d2Nal]FP-NH2)	50	51	
NCCCCCC(=O)N[C@H](Cc1ccc2ccccc2c1)C(=O)N[C@H](Cc1ccc2ccccc2c1)C(=O)N[C@@H](Cc1ccccc1)C(=O)N[C@@H](CCCCN)C(N)=O [(ahx) b b F K amide] (H-[Ahx][d2Nal][d2Nal]FK-NH2)	250		
NC(=O)[C@@H]1Cc2ccccc2CN1C(=O)[C@@H](Cc1ccc2ccccc2c1)NC(=O)[C@@H](Cc1ccc2ccccc2c1)NC(=O)C1CCNCC1 [(inip) b b (Tic) amide] (H-[Inp][d2Nal][d2Nal][Tic]-NH2)			RAT IV ED50 (growth hormone secretion; Table IV): 10 µg
NC(=O)CCCNC(=O)[C@@H](Cc1ccc2ccccc2c1)NC(=O)[C@@H](Cc1ccc2ccccc2c1)NC(=O)C1CCNCC1 [(inip) b b ab amide] (H-[Inp][d2Nal][d2Nal][GABA]-NH2; N-terminus assumed)			RAT IV ED50 (growth hormone secretion; Table IV): 10 µg
NCCCC[C@H](NC(=O)[C@H](Cc1ccccc1)NC(=O)[C@@H](Cc1c[nH]c2ccccc12)NC(=O)[C@@H](Cc1ccc2ccccc2c1)NC(=O)C1CCNCC1)C(N)=O [(inip) b w F K amide] (H-[Inp][d2Nal][dW]FK-NH2)	0.070		
CN(C(=O)[C@@H](Cc1ccc2ccccc2c1)NC(=O)C1CCN(C(=O)OC(C)(C)C)CC1)[C@@H](CN)Cc1ccc2ccccc2c1 [Boc (inip) b mbm]			EC50 (rat pituitary cells; read-out: PIT Cell EC50, Table V, formula II compounds, GH release, 15 min incubation): 13 nM
C[C@H](N)C(=O)N[C@@H](Cc1c[nH]cn1)C(=O)N[C@H](Cc1ccc2ccccc2c1)C(=O)N[C@@H](C)C(=O)N[C@@H](Cc1c[nH]c2ccccc12)C(=O)N[C@H](Cc1ccccc1)C(=O)N[C@@H](CCCCN)C(N)=O [GHRP 1, Ala-His-D βNal-Ala-Trp-D Phe-Lys-NH2, reference compound] (H-AH[d2Nal]AW[dF]K-NH2)			EC50 (rat pituitary cells; [3]): 1.4 nM
CN(C(=O)[C@@H](Cc1c[nH]c2ccccc12)NC(=O)[C@@H](Cc1c[nH]c2ccccc12)NC(=O)[C@@H](N)Cc1c[nH]cn1)[C@@H](Cc1ccccc1)C(=O)N[C@@H](CCCCN)C(N)=O [H w w nmF K amide] (H-H[dW][dW][NMeF]K-NH2)		37.3	
NCCCC[C@H](NC(=O)[C@H](Cc1ccccc1)NC(=O)[C@@H](Cc1c[nH]c2ccccc12)NC(=O)[C@@H](Cc1c[nH]c2ccccc12)NC(=O)[C@@H](N)Cc1ccc(O)cc1)C(N)=O [Y w w F K amide] (H-Y[dW][dW]FK-NH2)			EC50 (rat pituitary cells): 1000 nM
NC(=O)[C@H](Cc1ccccc1)NC(=O)[C@@H](Cc1c[nH]c2ccccc12)NC(=O)[C@@H](Cc1c[nH]c2ccccc12)NC(=O)[C@@H](N)Cc1ccc(O)cc1 [Y w w F amide, reference compound] (H-Y[dW][dW]F-NH2)			EC50 (rat pituitary cells): 1000 nM
CN[C@H](Cc1ccc2ccccc2c1)C(=O)N[C@H](Cc1ccc2ccccc2c1)C(=O)N[C@@H](Cc1ccc(O)cc1)C(=O)N[C@@H](CCCCN)C(N)=O [nmb b Y K amide] (H-[dNMe2Nal][d2Nal]YK-NH2)	500		
